Assay results published in patent publication US10865191B2, “Heterocyclic compounds useful as modulators of TNF alpha” (BRISTOL-MYERS SQUIBB COMPANY, priority 2015, dated 2020).

biological target: TNFα (Homo sapiens, UniProt P01375); test: TNF induced HEK-Blue assay (NF-kB-driven secreted alkaline phosphatase reporter); type: cell-based; conditions: TNF induced HEK-Blue assay IC50 value, TNFα 0.5 ng/mL, HEK-Blue-CD40L cells, 18 h
Procedure, shortened: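 HEK-Blue-CD40L cells (NF-kB-driven SEAP reporter), 20,000/well, added after 30 min pre-incubation of compound (0.004–25 μM final) with TNFα 0.5 ng/mL final at 37 °C; 18 h incubation. SEAP read with QUANTI-Blue at 620 nm; IC50 from 4-parameter logistic fit, normalized to unstimulated and stimulated DMSO controls.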

Chain of TNFα (P01375 77-233 limits assumed): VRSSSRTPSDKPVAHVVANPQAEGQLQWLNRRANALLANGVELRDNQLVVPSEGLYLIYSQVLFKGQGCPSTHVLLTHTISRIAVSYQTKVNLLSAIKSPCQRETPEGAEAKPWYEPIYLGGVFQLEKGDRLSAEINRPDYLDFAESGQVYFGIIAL

| Structure (SMILES) | IC50 [nM] |
| --- | --- |
| CC(=O)N1CCC[C@@H](C(C)Nc2c(Cl)cnc3ccc(-c4cnc(C(C)(C)O)nc4)cc23)C1 (single isomer, unassigned) [Example 108] | 1000 to 10000 |
| C[C@H](Nc1c(Cl)cnc2cnc(-c3cnc(C(C)(C)O)nc3)cc12)c1ccccc1F (single isomer, unassigned) [Example 234] | 10000 to 25000 |
| CC(Nc1c(Cl)cnc2cc(F)c(-c3cnc(C(C)(C)O)nc3)cc12)c1ccccc1F (single isomer, unassigned) [Example 241, 2-(5-(3-chloro-7-fluoro-4-((1-(2-fluorophenyl)ethyl)amino)quinolin-6-yl)pyrimidin-2-yl)propan-2-ol] | < 1000 |

same assay, conditions: TNFα 0.5 ng/mL, HEK-Blue-CD40L cells, 18 h; read-out: TNF induced HEK-Blue assay IC50 value

| Structure (SMILES) | IC50 [nM] |
| --- | --- |
| CC(Nc1c(Cl)cnc2ccc(-c3cnc(C(C)(C)O)nc3)cc12)[C@H]1CCCNC1 (single isomer, unassigned) [Example 96] | 10000 to 25000 |
| CC(Nc1c(Cl)cnc2ccc(-c3cnc(C(C)(C)O)nc3)cc12)[C@H]1CCCNC1 (single isomer, unassigned) [Example 97] | < 1000 |
| CC(Nc1c(Cl)cnc2ccc(-c3cnc(C(C)(C)O)nc3)cc12)[C@@H]1CCCN(C(N)=O)C1 (single isomer, unassigned) [Example 104] | 1000 to 10000 |
| C[C@@H](Nc1c(Cl)cnc2cnc(-c3cnc(N4CCN(CC(=O)O)CC4)nc3)cc12)c1ccccc1F (single isomer, unassigned) [Example 235] | 10000 to 25000 |
| C[C@H](Nc1c(Cl)cnc2cnc(-c3cnc(N4CCN(CC(=O)O)CC4)nc3)cc12)c1ccccc1F (single isomer, unassigned) [Example 236] | 10000 to 25000 |
| CC(C)(O)c1ncc(-c2ccc3ncc(Cl)c(N[C@H](CCF)c4ccccc4F)c3c2)cn1 (single isomer, unassigned) [Example 238] | < 1000 |
| CC(Nc1c(Cl)cnc2cc(F)c(-c3cnc(N4CCN(CC(=O)O)CC4)nc3)cc12)c1ccccc1F (single isomer, unassigned) [Example 242, 2-(4-(5-(3-chloro-7-fluoro-4-((1-(2-fluorophenyl)ethyl)amino)quinolin-6-yl)pyrimidin-2-yl)piperazin-1-yl)acetic acid] | < 1000 |
| CCOC(=O)C1CCN(c2ncc(-c3cc4c(NC(C)c5ccccc5F)c(Cl)cnc4cc3F)cn2)CC1 (single isomer, unassigned) [Example 243, ethyl-1-(5-(3-chloro-7-fluoro-4-((1-(2-fluorophenyl)ethyl)amino)quinolin-6-yl)pyrimidin-2-yl)piperidine-4-carboxylate] | < 1000 |
| CC(Nc1c(Cl)cnc2cc(F)c(-c3cnc(N4CCC(C(=O)O)CC4)nc3)cc12)c1ccccc1F (single isomer, unassigned) [Example 244, 1-(5-(3-chloro-7-fluoro-4-((1-(2-fluorophenyl)ethyl)amino)quinolin-6-yl)pyrimidin-2-yl)piperidine-4-carboxylic acid] | < 1000 |
| CC(Nc1c(Cl)cnc2cc(F)c(-c3cnc(N4CCC(C(C)(C)O)CC4)nc3)cc12)c1ccccc1F (single isomer, unassigned) [Example 245, 2-(1-(5-(3-chloro-7-fluoro-4-((1-(2-fluorophenyl)ethyl)amino)quinolin-6-yl)pyrimidin-2-yl)piperidin-4-yl)propan-2-ol] | < 1000 |
| Cc1nc2ccc(-c3cnc(C(C)(C)O)nc3)cc2c(C(O)C(C)CC(C)C)c1Cl (single isomer, unassigned) [Example 355, 1-(3-Chloro-6-(2-(2-hydroxypropan-2-yl)pyrimidin-5-yl)-2-methylquinolin-4-yl)-2,4-dimethylpentan-1-ol] | 1000 to 10000 |
| CCCC(C)C(N)c1c(Cl)c(C)nc2ccc(-c3cnc(C(C)(C)O)nc3)cc12 (single isomer, unassigned) [Example 357, 2-(5-(4-(1-amino-2-methylpentyl)-3-chloro-2-methylquinolin-6-yl)pyrimidin-2-yl)propan-2-ol] | 1000 to 10000 |
| CCCC(C)C(N)c1c(Cl)c(C)nc2ccc(-c3cnc(C(C)(C)O)nc3)cc12 (single isomer, unassigned) [Example 358, 2-(5-(4-(1-amino-2-methylpentyl)-3-chloro-2-methylquinolin-6-yl)pyrimidin-2-yl)propan-2-ol] | 10000 to 25000 |
| C[C@@H](Nc1c(Cl)cnc2ccc(-c3cnc(C(C)(C)O)nc3)cc12)c1cc(C(O)CO)ccc1F (single isomer, unassigned) [Example 400] | < 1000 |
| C[C@@H](Nc1c(Cl)cnc2ccc(-c3cnc(C(C)(C)O)nc3)cc12)c1cc(C(O)CO)ccc1F (single isomer, unassigned) [Example 401] | < 1000 |
| C[C@@H](Nc1c(Cl)cnc2ccc(-c3cnc(C(C)(C)O)nc3)cc12)c1cc(C2NC(=O)NC2=O)ccc1F (single isomer, unassigned) [Example 422] | < 1000 |
| C[C@@H](Nc1c(Cl)cnc2ccc(-c3cnc(C(C)(C)O)nc3)cc12)c1cc(C2NC(=O)NC2=O)ccc1F (single isomer, unassigned) [Example 423] | < 1000 |
| CC(Nc1c(Cl)cnc2cc(F)c(-c3cnc(C(C)(C)O)cn3)cc12)c1ccccc1F (single isomer, unassigned) [Example 595, 2-(5-(3-chloro-7-fluoro-4-((1-(2-fluorophenyl)ethyl)amino)quinolin-6-yl)pyrazin-2-yl)propan-2-ol] | < 1000 |
| CC(Nc1c(Cl)cnc2cc(F)c(-c3cnc(C(O)CO)nc3)cc12)c1ccccc1F (single isomer, unassigned) [Example 596, 1-(5-(3-chloro-7-fluoro-4-((1-(2-fluorophenyl)ethyl)amino)quinolin-6-yl)pyrimidin-2-yl)ethane-1,2-diol] | < 1000 |
| CC(Nc1c(Cl)cnc2cc(F)c(-c3cnc(C(O)CO)nc3)cc12)c1ccccc1F (single isomer, unassigned) [Example 597, 1-(5-(3-chloro-7-fluoro-4-((1-(2-fluorophenyl)ethyl)amino)quinolin-6-yl)pyrimidin-2-yl)ethane-1,2-diol] | 1000 to 10000 |
| CC(Nc1c(Cl)cnc2cc(F)c(-c3ccc(C4COCCN4)cc3)cc12)c1ccccc1F (single isomer, unassigned) [Example 598, 3-chloro-7-fluoro-N-(1-(2-fluorophenyl)ethyl)-6-(4-(morpholin-3-yl)phenyl)quinolin-4-amine] | 1000 to 10000 |
| CNCC(O)c1ccc(-c2cc3c(NC(C)c4ccccc4F)c(Cl)cnc3cc2F)cc1 (single isomer, unassigned) [Example 600, 1-(4-(3-chloro-7-fluoro-4-((1-(2-fluorophenyl)ethyl)amino)quinolin-6-yl)phenyl)-2-(methylamino)ethan-1-ol] | < 1000 |
| CC(Nc1c(Cl)cnc2cc(F)c(-c3ccc(C(O)CO)cc3)cc12)c1cc(C(N)=O)ccc1F (single isomer, unassigned) [Example 601, 3-(1-((3-chloro-6-(4-(1,2-dihydroxyethyl)phenyl)-7-fluoroquinolin-4-yl)amino)ethyl)-4-fluorobenzamide] | < 1000 |
| CC(Nc1c(Cl)cnc2cc(F)c(-c3cnc(N4CCN(C(=O)CCC(=O)O)CC4)nc3)cc12)c1ccccc1F (single isomer, unassigned) [Example 602, 4-(4-(5-(3-chloro-7-fluoro-4-((1-(2-fluorophenyl)ethyl)amino)quinolin-6-yl)pyrimidin-2-yl)piperazin-1-yl)-4-oxobutanoic acid] | < 1000 |
